Square brackets hold non-standard residues; d marks the D form. Peptide text beside a SMILES is read from it. Phe(4-NO2) = N[C@@H](Cc1ccc([N+](=O)[O-])cc1)C(=O)O
Key:
[1] = molecular target: T1, GRF receptors ([^125 I-Tyr^10 ]hGRF(1-44)NH2 binding sites in rat adenopituitary) (Rattus norvegicus, UniProt Q02644); experiment: Competitive binding assay with [^125 I-Tyr^10 ]hGRF(1-44)NH2 on anterior pituitary homogenates
T1 construct: from tissue; host or cells: rat anterior pituitary homogenate
T1 sequence (Q02644 23-423 isoform Q02644-2 limits assumed): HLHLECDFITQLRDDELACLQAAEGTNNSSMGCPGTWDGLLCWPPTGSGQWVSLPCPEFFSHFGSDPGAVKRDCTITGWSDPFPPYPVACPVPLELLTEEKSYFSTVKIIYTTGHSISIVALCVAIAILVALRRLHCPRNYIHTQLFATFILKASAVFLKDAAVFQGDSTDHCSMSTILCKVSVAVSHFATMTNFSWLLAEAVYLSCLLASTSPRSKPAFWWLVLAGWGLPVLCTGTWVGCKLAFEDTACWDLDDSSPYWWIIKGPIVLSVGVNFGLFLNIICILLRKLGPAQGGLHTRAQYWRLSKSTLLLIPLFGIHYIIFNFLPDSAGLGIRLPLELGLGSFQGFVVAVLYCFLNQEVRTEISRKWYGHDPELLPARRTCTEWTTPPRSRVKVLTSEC
Experimental: The binding of [^125 I-Tyr^10 ]hGRF(1-44)NH2 was performed on anterior pituitary homogenates as previously described (Gaudreau P. et al., J. Biol. Chem., 1992, 35:1864-1869). Briefly, anterior pituitaries (pit.) were dissected out, rinsed and homogenized for 8 sec with a Micro Ultrasonic Cell Disrupter™, in ice-cold 50 mM Tris-HCl buffer, pH 7.4, containing 5 mM MgCl2 and 5 mM EDTA (1 pit./0.5 ml). These homogenates were used immediately. Competition studies were performed using 35-50 pM [^125 I-Tyr^10 ]hGRF(1-44)NH2 as radio-ligand,50 μl of homogenate (70 to 75 μg of protein), and increasing concentrations of Nε-CF-[Lys^31 ]hGRF or other GRF analogues (0-1000 nM) or with 2.4 μM rGRF(1-29)NH2 for determination of non-specific binding, in a total volume of 300 μl of Tris-HCl buffer, pH 7.4, containing 5 mM EDTA, 5 mM MgCl2 and 0.42% BSA. Incubations were carried out at 23° C. for 60 min and stopped by centrifugation (12,000 g, 5 min, at 4° C.). The radioactivity content in the pellet was measured by gamma counting. The affinity of hGRF(1-29)NH2 was tested in each experiment to assess the validity of the assay and determine the relative affinity of the analogues. […] The Hill values indicate that all these peptides bind to the high and low affinity GRF binding sites found in the anterior pituitary.

[2] = molecular target: T2, GRF receptor (adenylate cyclase activity in rat adenopituitary) (Rattus norvegicus, UniProt Q02644); experiment: Adenylate cyclase assay on anterior pituitary homogenates (cAMP by HPLC); type: biochemical; details: Table 12; 50% of maximal cAMP accumulation induced by 1 μM hGRF(1-29)NH2; mean±SD of 2 or mean±SE of 3 to 6 experiments, 10 for hGRF(1-29)NH2
T2 construct: from tissue; host or cells: rat anterior pituitary homogenate
T2 sequence (Q02644 23-423 isoform Q02644-2 limits assumed): T1 sequence (Q02644 23-423 isoform Q02644-2 limits assumed)
Experimental: The adenylate cyclase activity Nε-CF-[Lys^31 ]hGRF was performed on anterior pituitary homogenates as previously described (Lefrangois L. and Gaudreau P., J. Chromatogr., 1993, 619:116-120). Briefly, anterior pituitaries (pit.) were dissected out, rinsed and homogenized for 8 sec with a Micro Ultrasonic Cell Disrupter™, in ice-cold 20 mM Tris-HCl buffer (pH 7.5) containing 2 mM MgCl2 and 250 mM sucrose (1 pit./0.5 ml).
Samples of anterior pituitary homogenates (30-40 μg protein) were incubated in 1.5 ml Eppendorf™ tubes with 30 mM Tris-HCl, 5 mM MgCl2, 0.5 mM EGTA, containing 0.5 mM ATP, 1 mM IBMX, 10 μM GTP and an ATP regenerating system consisting of 2 mM creatine phosphate, 0.1 mg/ml creatine kinase and, 0.1 mg/ml myokinase in a final volume of 120 μl. Incubations were initiated by adding 20 μl of the homogenate to the reaction mixture which had previously been equilibrated at 37° C. for 2 min. The reactions were carried out for 8 min at 37° C. and stopped by heating the samples in boiling water for 4 min. Samples were centrifuged (12000 g, 5 min, 4° C.) and supernatants were filtered through 0.45 μm Millex HV4 ™ filters and transferred to autosampler vials for HPLC quantification of cAMP.

[3] = Table 11, mean±SD of 2 or mean±SE of 3 experiments for analogues, mean±SE of 11 for hGRF(1-29)NH2

## CC[C@H](C)[C@H](NC(=O)[C@H](C)NC(=O)[C@H](CC(=O)O)NC(=O)[C@@H](C)NC(=O)[C@@H](N)Cc1ccc(O)cc1)C(=O)N[C@@H](Cc1ccccc1)C(=O)N[C@H](C(=O)N[C@@H](CC(N)=O)C(=O)N[C@@H](CO)C(=O)N[C@H](Cc1ccc(O)cc1)C(=O)N[C@@H](CCCNC(=N)N)C(=O)N[C@@H](CCCCN)C(=O)N[C@H](C(=O)N[C@@H](CC(C)C)C(=O)N[C@H](C)C(=O)N[C@@H](CCC(N)=O)C(=O)N[C@@H](CC(C)C)C(=O)N[C@@H](CO)C(=O)N[C@@H](C)C(=O)N[C@@H](CCCNC(=N)N)C(=O)N[C@H](CCCCN)C(=O)N[C@@H](CC(C)C)C(=O)N[C@@H](CC(C)C)C(=O)N[C@@H](CCC(N)=O)C(=O)N[C@@H](CC(=O)O)C(=O)N[C@H](C(=O)N[C@@H](CCSC)C(=O)N[C@@H](CO)C(=O)N[C@@H](CCCNC(=N)N)C(N)=O)[C@@H](C)CC)C(C)C)[C@@H](C)O [D-Ala^2, D-Tyr^10, D-Ala^15, D-Lys^21] (H-Y[dA]DAIFTNS[dY]RKVL[dA]QLSAR[dK]LLQDIMSR-NH2)
[1]; [3]
  IC50: 31.6 ± 11.7 nM
[2]
  IC50: 136 ± 50 nM

## CC[C@H](C)[C@H](NC(=O)[C@H](C)NC(=O)[C@H](CC(=O)O)NC(=O)[C@@H](C)NC(=O)[C@@H](N)Cc1ccc(O)cc1)C(=O)N[C@@H](Cc1ccccc1)C(=O)N[C@H](C(=O)N[C@@H](CC(N)=O)C(=O)N[C@@H](CO)C(=O)N[C@H](Cc1ccc(O)cc1)C(=O)N[C@@H](CCCNC(=N)N)C(=O)N[C@@H](CCCCN)C(=O)N[C@H](C(=O)N[C@@H](CC(C)C)C(=O)N[C@H](C)C(=O)N[C@@H](CCC(N)=O)C(=O)N[C@@H](CC(C)C)C(=O)N[C@@H](CO)C(=O)N[C@@H](C)C(=O)N[C@@H](CCCNC(=N)N)C(=O)N[C@@H](CCCCN)C(=O)N[C@@H](CC(C)C)C(=O)N[C@@H](CC(C)C)C(=O)N[C@@H](CCC(N)=O)C(=O)N[C@@H](CC(=O)O)C(=O)N[C@H](C(=O)N[C@@H](CCSC)C(=O)N[C@@H](CO)C(=O)N[C@@H](CCCNC(=N)N)C(N)=O)[C@@H](C)CC)C(C)C)[C@@H](C)O [D-Ala^2, D-Tyr^10, D-Ala^15] (H-Y[dA]DAIFTNS[dY]RKVL[dA]QLSARKLLQDIMSR-NH2)
[1]; [3]
  IC50: 13.1 ± 0.9 nM
[2]
  IC50: 176 ± 87 nM

## CC[C@H](C)[C@H](NC(=O)[C@H](C)NC(=O)[C@H](CC(=O)O)NC(=O)[C@H](C)NC(=O)[C@@H](N)Cc1ccc(O)cc1)C(=O)N[C@@H](Cc1ccccc1)C(=O)N[C@H](C(=O)N[C@H](CC(N)=O)C(=O)N[C@@H](CO)C(=O)N[C@@H](Cc1ccc(O)cc1)C(=O)N[C@@H](CCCNC(=N)N)C(=O)N[C@@H](CCCCN)C(=O)N[C@H](C(=O)N[C@@H](CC(C)C)C(=O)NCC(=O)N[C@@H](CCC(N)=O)C(=O)N[C@@H](CC(C)C)C(=O)N[C@@H](CO)C(=O)N[C@@H](C)C(=O)N[C@@H](CCCNC(=N)N)C(=O)N[C@@H](CCCCN)C(=O)N[C@H](CC(C)C)C(=O)N[C@@H](CC(C)C)C(=O)N[C@@H](CCC(N)=O)C(=O)N[C@@H](CC(=O)O)C(=O)N[C@H](C(=O)N[C@@H](CCSC)C(=O)N[C@@H](CO)C(=O)N[C@@H](CCCNC(=N)N)C(N)=O)[C@@H](C)CC)C(C)C)[C@@H](C)O [D-Ans^8, D-Leu^22]
[1]; [3]
  IC50: 4.9 ± 3.25 nM
[2]
  IC50: 67 ± 24 nM

## CC[C@H](C)[C@H](NC(=O)[C@H](C)NC(=O)[C@H](CC(=O)O)NC(=O)[C@H](C)NC(=O)[C@H](Cc1ccc(O)cc1)NC(=O)[C@@H](N)Cc1ccc([N+](=O)[O-])cc1)C(=O)N[C@@H](Cc1ccccc1)C(=O)N[C@H](C(=O)N[C@@H](CC(N)=O)C(=O)N[C@@H](CO)C(=O)N[C@@H](Cc1ccc(O)cc1)C(=O)N[C@@H](CCCNC(=N)N)C(=O)N[C@@H](CCCCN)C(=O)N[C@H](C(=O)N[C@@H](CC(C)C)C(=O)NCC(=O)N[C@@H](CCC(N)=O)C(=O)N[C@@H](CC(C)C)C(=O)N[C@@H](CO)C(=O)N[C@@H](C)C(=O)N[C@@H](CCCNC(=N)N)C(=O)N[C@@H](CCCCN)C(=O)N[C@@H](CC(C)C)C(=O)N[C@@H](CC(C)C)C(=O)N[C@@H](CCC(N)=O)C(=O)N[C@@H](CC(=O)O)C(=O)N[C@H](C(=O)N[C@@H](CCSC)C(=O)N[C@@H](CO)C(=O)N[C@@H](CCCNC(=N)N)C(N)=O)[C@@H](C)CC)C(C)C)[C@@H](C)O [npa0]
[1]; Table 7
  Hill coef.: 0.63 ± 0.09
[1]; Table 7, mean±SD of 2 or mean±SE of 3-6 experiments for analogues, mean±SE of 29 for hGRF(1-29)NH2
  IC50: 18.3 ± 5.9 nM
[1]; Table 7, ratio IC50 of hGRF(1-29)NH2 /IC50 analogue
  Relative affinity: 14 ± 5%

## CC[C@H](C)[C@H](NC(=O)[C@H](C)NC(=O)[C@H](CC(=O)O)NC(=O)[C@H](C)NC(=O)[C@@H](N)Cc1ccc(O)cc1)C(=O)N[C@@H](Cc1ccccc1)C(=O)N[C@H](C(=O)N[C@@H](CC(N)=O)C(=O)N[C@@H](Cc1ccc([N+](=O)[O-])cc1)C(=O)N[C@@H](Cc1ccc(O)cc1)C(=O)N[C@@H](CCCNC(=N)N)C(=O)N[C@@H](CCCCN)C(=O)N[C@H](C(=O)N[C@@H](CC(C)C)C(=O)NCC(=O)N[C@@H](CCC(N)=O)C(=O)N[C@@H](CC(C)C)C(=O)N[C@@H](CO)C(=O)N[C@@H](C)C(=O)N[C@@H](CCCNC(=N)N)C(=O)N[C@@H](CCCCN)C(=O)N[C@@H](CC(C)C)C(=O)N[C@@H](CC(C)C)C(=O)N[C@@H](CCC(N)=O)C(=O)N[C@@H](CC(=O)O)C(=O)N[C@H](C(=O)N[C@@H](CCSC)C(=O)N[C@@H](CO)C(=O)N[C@@H](CCCNC(=N)N)C(N)=O)[C@@H](C)CC)C(C)C)[C@@H](C)O [npa^9, [4'-nitro-phenylanalylalanine^9]hGRF(1-29)NH2] (H-YADAIFTN[Phe(4-NO2)]YRKVLGQLSARKLLQDIMSR-NH2)
[1]
  IC50 (in words): low nanomolar range

## CC[C@H](C)[C@H](NC(=O)[C@H](C)NC(=O)[C@H](CC(=O)O)NC(=O)[C@H](C)NC(=O)[C@@H](N)Cc1ccc(O)cc1)C(=O)N[C@@H](Cc1ccccc1)C(=O)N[C@H](C(=O)N[C@@H](CC(N)=O)C(=O)N[C@@H](CO)C(=O)N[C@@H](Cc1ccc([N+](=O)[O-])cc1)C(=O)N[C@@H](CCCNC(=N)N)C(=O)N[C@@H](CCCCN)C(=O)N[C@H](C(=O)N[C@@H](CC(C)C)C(=O)NCC(=O)N[C@@H](CCC(N)=O)C(=O)N[C@@H](CC(C)C)C(=O)N[C@@H](CO)C(=O)N[C@@H](C)C(=O)N[C@@H](CCCNC(=N)N)C(=O)N[C@@H](CCCCN)C(=O)N[C@@H](CC(C)C)C(=O)N[C@@H](CC(C)C)C(=O)N[C@@H](CCC(N)=O)C(=O)N[C@@H](CC(=O)O)C(=O)N[C@H](C(=O)N[C@@H](CCSC)C(=O)N[C@@H](CO)C(=O)N[C@@H](CCCNC(=N)N)C(N)=O)[C@@H](C)CC)C(C)C)[C@@H](C)O [npa^10, [4'-nitro-phenylalanine^10]hGRF(1-29)NH2] (H-YADAIFTNS[Phe(4-NO2)]RKVLGQLSARKLLQDIMSR-NH2)
[1]
  IC50 (in words): low nanomolar range

From patent publication US5854216A, “Marker for growth hormone-releasing factor receptors” (Universite de Montreal, priority 1996, dated 1998)
